From US20250313575A1, “MACROCYCLES AS LRRK2 INHIBITORS, PHARMACEUTICAL COMPOSITIONS, AND USES THEREOF” (Merck Sharp & Dohme LLC, priority 2022, published 2025)

What follows are molecules tested against GST-tagged truncated human mutant G2019S LRRK2 (Homo sapiens (Human), UniProt Q5S007, G2019S) (assay: LRRK2 G2019S Km ATP LanthaScreen assay). Settings: G2019S LRRK2, 134 μM ATP (Km ATP), LRRKtide substrate.
Format: biochemical
Method in brief: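 TR-FRET assay with GST-tagged truncated human G2019S LRRK2 (1.25 nM), preincubated with compound 15 min, then reacted with fluorescein-LRRKtide and 134 μM ATP (Km) in Tris pH 8.5 buffer, 90 min, ambient temperature. Tb-anti-phospho-LRRKtide detection, 520/495 nm ratio; IC50 by 4-parameter logistic fit, top concentration 9.99 μM in DMSO, 10 points.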

Sequence of GST-tagged truncated human mutant G2019S LRRK2 (Q5S007 970-2527 G2019S): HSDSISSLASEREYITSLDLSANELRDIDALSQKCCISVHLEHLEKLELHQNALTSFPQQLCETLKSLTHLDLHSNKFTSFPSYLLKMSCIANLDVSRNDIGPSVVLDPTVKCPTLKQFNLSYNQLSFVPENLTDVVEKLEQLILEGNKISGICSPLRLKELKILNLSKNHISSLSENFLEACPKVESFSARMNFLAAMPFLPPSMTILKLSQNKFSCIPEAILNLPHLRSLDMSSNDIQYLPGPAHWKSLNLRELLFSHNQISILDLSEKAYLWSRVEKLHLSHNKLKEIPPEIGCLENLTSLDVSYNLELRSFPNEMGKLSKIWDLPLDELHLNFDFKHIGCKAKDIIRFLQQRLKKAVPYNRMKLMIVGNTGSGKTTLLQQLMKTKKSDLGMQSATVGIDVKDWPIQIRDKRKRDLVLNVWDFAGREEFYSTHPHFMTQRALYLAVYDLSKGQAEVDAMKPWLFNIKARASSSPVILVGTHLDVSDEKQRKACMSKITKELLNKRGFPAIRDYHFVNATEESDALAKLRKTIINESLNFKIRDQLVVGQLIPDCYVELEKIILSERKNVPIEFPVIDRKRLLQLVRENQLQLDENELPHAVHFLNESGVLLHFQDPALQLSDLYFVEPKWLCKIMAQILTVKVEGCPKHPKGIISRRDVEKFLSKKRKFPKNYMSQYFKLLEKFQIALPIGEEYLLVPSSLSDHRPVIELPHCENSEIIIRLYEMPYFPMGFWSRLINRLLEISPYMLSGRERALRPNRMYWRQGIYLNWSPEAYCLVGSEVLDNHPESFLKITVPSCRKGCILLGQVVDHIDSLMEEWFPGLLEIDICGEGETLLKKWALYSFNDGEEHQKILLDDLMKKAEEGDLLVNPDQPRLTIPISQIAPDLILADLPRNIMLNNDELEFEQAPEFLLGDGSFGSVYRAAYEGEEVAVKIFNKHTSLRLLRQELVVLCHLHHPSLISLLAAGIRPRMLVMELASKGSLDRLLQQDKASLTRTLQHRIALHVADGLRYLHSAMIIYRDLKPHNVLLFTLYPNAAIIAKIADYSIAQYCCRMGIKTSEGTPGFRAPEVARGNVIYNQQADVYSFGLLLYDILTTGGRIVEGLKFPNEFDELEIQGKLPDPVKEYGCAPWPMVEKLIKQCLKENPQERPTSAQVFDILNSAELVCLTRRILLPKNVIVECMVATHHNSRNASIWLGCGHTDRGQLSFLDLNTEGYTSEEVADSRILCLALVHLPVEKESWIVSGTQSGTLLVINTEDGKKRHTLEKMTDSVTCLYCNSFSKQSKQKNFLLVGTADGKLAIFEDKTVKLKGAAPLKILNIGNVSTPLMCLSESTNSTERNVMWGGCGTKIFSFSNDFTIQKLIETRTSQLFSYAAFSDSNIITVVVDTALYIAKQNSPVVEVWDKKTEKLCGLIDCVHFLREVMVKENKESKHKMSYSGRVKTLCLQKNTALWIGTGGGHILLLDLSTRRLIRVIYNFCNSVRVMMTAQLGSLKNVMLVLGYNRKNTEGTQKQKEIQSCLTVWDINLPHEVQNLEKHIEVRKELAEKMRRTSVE

SMILES	LRRK2 pIC50
COC1CCC1n1nc(C)c2c1Nc1ncc(C(F)(F)F)c(n1)NC1COCC1CO2 [Ex-2.39, (10aS,13aS)-3-((1R,2R)-(10aS,13aS)-3-((1S,2R)-(10aS,13aS)-3-((1R,2S)-(10aS,13aS)-3-((1R,2R)-(10aR,13aR)-3-((1S,2R)-(10aR,13aR)-3-((1R,2S)-2-methoxycyclobutyl)-1-methyl-8-(trifluoromethyl)-3,4,10a,11,13a,14-hexahydro-10H,13H-5,9-(azeno)furo[3,4-k]pyrazolo[4,3-b][1]oxa[4,6,10]triazacyclotridecine]	6.32
COC1CCC1n1nc(C)c2c1Nc1ncc(C(F)(F)F)c(n1)NC1COCC1CO2 [Ex-2.40, (10aS,13aS)-3-((1R,2R)-(10aS,13aS)-3-((1S,2R)-(10aS,13aS)-3-((1R,2S)-(10aS,13aS)-3-((1R,2R)-(10aR,13aR)-3-((1S,2R)-(10aR,13aR)-3-((1R,2S)-2-methoxycyclobutyl)-1-methyl-8-(trifluoromethyl)-3,4,10a,11,13a,14-hexahydro-10H,13H-5,9-(azeno)furo[3,4-k]pyrazolo[4,3-b][1]oxa[4,6,10]triazacyclotridecine]	8.96
COC1CCC1n1nc(C)c2c1Nc1ncc(C(F)(F)F)c(n1)NC1COCC1CO2 [Ex-2.41, (10aS,13aS)-3-((1R,2R)-(10aS,13aS)-3-((1S,2R)-(10aS,13aS)-3-((1R,2S)-(10aS,13aS)-3-((1R,2R)-(10aR,13aR)-3-((1S,2R)-(10aR,13aR)-3-((1R,2S)-2-methoxycyclobutyl)-1-methyl-8-(trifluoromethyl)-3,4,10a,11,13a,14-hexahydro-10H,13H-5,9-(azeno)furo[3,4-k]pyrazolo[4,3-b][1]oxa[4,6,10]triazacyclotridecine]	6.51
Cc1nn(C(C)C)c2c1OC[C@@H]1COC[C@H]1Nc1nc(ncc1C(F)(F)F)N2 [Ex-2.42, (10aS,13aS)-3-isopropyl-1-methyl-8-(trifluoromethyl)-3,4,10a,11,13a,14-hexahydro-10H,13H-5,9-(azeno)furo[3,4-k]pyrazolo[4,3-b][1]oxa[4,6,10]triazacyclotridecine]	9.93
CC(C)n1nc(C(C)(C)C#N)c2c1Nc1ncc(C(F)(F)F)c(n1)N[C@@H]1COC[C@H]1CO2 [Ex-2.43, 2-((10aS,13aS)-3-isopropyl-8-(trifluoromethyl)-3,4,10a,11,13a,14-hexahydro-10H,13H-5,9-(azeno)furo[3,4-k]pyrazolo[4,3-b][1]oxa[4,6,10]triazacyclotridecin-1-yl)-2-methylpropanenitrile]	>10.09
CCOC(=O)[C@@H]1C[C@@H]1c1nn(C(C)C)c2c1OC[C@@H]1COC[C@H]1Nc1nc(ncc1C(F)(F)F)N2 [Ex-2.46, ethyl (1R,2S)- or ethyl (1S,2R)-2-((10aS,13aS)-3-isopropyl-8-(trifluoromethyl)-3,4,10a,11,13a,14-hexahydro-10H,13H-5,9-(azeno)furo[3,4-k]pyrazolo[4,3-b][1]oxa[4,6,10]triazacyclotridecin-1-yl)cyclopropane-1-carboxylate]	6.66
CCOC(=O)[C@@H]1C[C@@H]1c1nn(C(C)C)c2c1OC[C@@H]1COC[C@H]1Nc1nc(ncc1C(F)(F)F)N2 [Ex-2.47, ethyl (1R,2S)- or ethyl (1S,2R)-2-((10aS,13aS)-3-isopropyl-8-(trifluoromethyl)-3,4,10a,11,13a,14-hexahydro-10H,13H-5,9-(azeno)furo[3,4-k]pyrazolo[4,3-b][1]oxa[4,6,10]triazacyclotridecin-1-yl)cyclopropane-1-carboxylate]	>10.09
CC(C)(C#N)c1nn(C2CCC2)c2c1OC[C@@H]1COC[C@H]1Nc1nc(ncc1C(F)(F)F)N2 [Ex-2.48, 2-((10aS,13aS)-3-cyclobutyl-8-(trifluoromethyl)-3,4,10a,11,13a,14-hexahydro-10H,13H-5,9-(azeno)furo[3,4-k]pyrazolo[4,3-b][1]oxa[4,6,10]triazacyclotridecin-1-yl)-2-methylpropanenitrile]	>10.09
Cc1nn(C2CCC2)c2c1OC[C@@H]1COC[C@H]1Nc1nc(ncc1Cl)N2 [Ex-2.49, (10aS,13aS)-8-chloro-3-cyclobutyl-1-methyl-3,4,10a,11,13a,14-hexahydro-10H,13H-5,9-(azeno)furo[3,4-k]pyrazolo[4,3-b][1]oxa[4,6,10]triazacyclotridecine]	>10.09
CC(C)(C#N)c1nn(C2CCC2)c2c1OC[C@H]1CC[C@@H]1Nc1nc(ncc1C(F)(F)F)N2 [Ex-2.52, 2-((10aS,12aS)- or 2-((10aR,12aR)-3-cyclobutyl-8-(trifluoromethyl)-3,4,10,10a,11,12,12a,13-octahydro-5,9-(azeno)cyclobuta[k]pyrazolo[4,3-b][1]oxa[4,6,10]triazacyclotridecin-1-yl)-2-methylpropanenitrile]	5.96
CC(C)(C#N)c1nn(C2CCC2)c2c1OC[C@H]1CC[C@@H]1Nc1nc(ncc1C(F)(F)F)N2 [Ex-2.53, 2-((10aS,12aS)- or 2-((10aR,12aR)-3-cyclobutyl-8-(trifluoromethyl)-3,4,10,10a,11,12,12a,13-octahydro-5,9-(azeno)cyclobuta[k]pyrazolo[4,3-b][1]oxa[4,6,10]triazacyclotridecin-1-yl)-2-methylpropanenitrile]	9.64
Cc1nn(C(C)C)c2c1OC[C@@H]1COC[C@H]1Nc1nc(ncc1Cl)N2 [Ex-2.54, (10aS,13aS)-8-chloro-3-isopropyl-1-methyl-3,4,10a, 11,13a,14--hexahydro-10H,13H-5,9-(azeno)furo[3,4-k]pyrazolo[4,3-b][1]oxa[4,6,10]triazacyclotridecine]	8.57
Cc1nn(C2CC2)c2c1OC[C@@H]1COC[C@H]1Nc1nc(ncc1Cl)N2 [Ex-2.55, (10aS,13aS)-8-chloro-3-cyclopropyl-1-methyl-3,4,10a,11,13a,14-hexahydro-10H,13H-5,9-(azeno)furo[3,4-k]pyrazolo[4,3-b][1]oxa[4,6,10]triazacyclotridecine]	8.94
Cc1nn(C2CCC2)c2c1OC[C@@H]1CC[C@@H]1Nc1nc(ncc1Cl)N2 [Ex-2.56, (10aS,12aR)-8-chloro-3-cyclobutyl-1-methyl-3,4,10,10a,11,12,12a,13-octahydro-5,9-(azeno)cyclobuta[k]pyrazolo[4,3-b][1]oxa[4,6,10]triazacyclotridecine]	>10.09
CC(C)n1nc(C2CC2)c2c1Nc1ncc(C(F)(F)F)c(n1)N[C@@H]1COC[C@H]1CO2 [Ex-2.57, (10aS,13aS)-1-cyclopropyl-3-isopropyl-8-(trifluoromethyl)-3,4,10a,11,13a,14-hexahydro-10H,13H-5,9-(azeno)furo[3,4-k]pyrazolo[4,3-b][1]oxa[4,6,10]triazacyclotridecine]	9.98
Cc1nn(C2CC2(F)F)c2c1OCC1COCC1Nc1nc(ncc1C(F)(F)F)N2 [Ex-2.58, (10aS,13aS)-3-((R)-2,2-difluorocyclopropyl)-1-methyl-8-(trifluoromethyl)-3,4,10a,11,13a,14-hexahydro-10H,13H-5,9-(azeno)furo[3,4-k]pyrazolo[4,3-b][1]oxa[4,6,10]triazacyclotridecine (10aS,13aS)-3-((S)-2,2-difluorocyclopropyl)-1-methyl-8-(trifluoromethyl)-3,4,10a,11,13a,14-hexahydro-10H,13H-5,9-(azeno)furo[3,4-k]pyrazolo[4,3-b][1]oxa[4,6,10]triazacyclotridecine]	8.78
Cc1nn(C2CC2(F)F)c2c1OCC1COCC1Nc1nc(ncc1C(F)(F)F)N2 [Ex-2.59, (10aS,13aS)-3-((R)-2,2-difluorocyclopropyl)-1-methyl-8-(trifluoromethyl)-3,4,10a,11,13a,14-hexahydro-10H,13H-5,9-(azeno)furo[3,4-k]pyrazolo[4,3-b][1]oxa[4,6,10]triazacyclotridecine (10aS,13aS)-3-((S)-2,2-difluorocyclopropyl)-1-methyl-8-(trifluoromethyl)-3,4,10a,11,13a, 14-hexahydro-10H,13H-5,9-(azeno)furo[3,4-k]pyrazolo[4,3-b|[1]oxa|4,6,10]triazacyclotridecine]	9.71
Cc1nn(C2CC2)c2c1OC[C@@H]1CC[C@H]1Nc1nc(ncc1Cl)N2 [Ex-2.60, (10aR,12aR)-8-chloro-3-cyclopropyl-1-methyl-3,4,10,10a,11,12,12a,13-octahydro-5,9-(azeno)cyclobuta[k]pyrazolo[4,3-b][1]oxa[4,6,10]triazacyclotridecine]	9.41
Cc1nn(C(C)C)c2c1OC[C@@H]1CC[C@H]1Nc1nc(ncc1Cl)N2 [Ex-2.61, (10aR,12aR)-8-chloro-3-isopropyl-1-methyl-3,4,10,10a,11,12,12a,13-octahydro-5,9-(azeno)cyclobuta[k]pyrazolo[4,3-b][1]oxa[4,6,10]triazacyclotridecine]	9.60
FC(F)(F)c1cnc2nc1NC1CCC1COc1c(C3CCOC3)nn(C3CCC3)c1N2 [Ex-2.62, (10aR,12aR)-3-cyclobutyl-1-((R)-(10aR,12aR)-3-cyclobutyl-1-((S)-(10aS,12aS)-3-cyclobutyl-1-((R)-(10aS,12aS)-3-cyclobutyl-1-((S)-tetrahydrofuran-3-yl)-8-(trifluoromethyl)-3,4,10,10a,11,12,12a,13-octahydro-5,9-(azeno)cyclobuta[k]pyrazolo[4,3-b][1]oxa[4,6,10]triazacyclotridecine]	6.88
FC(F)(F)c1cnc2nc1NC1CCC1COc1c(C3CCOC3)nn(C3CCC3)c1N2 [Ex-2.63, (10aR,12aR)-3-cyclobutyl-1-((R)-(10aR,12aR)-3-cyclobutyl-1-((S)-(10aS,12aS)-3-cyclobutyl-1-((R)-(10aS,12aS)-3-cyclobutyl-1-((S)-tetrahydrofuran-3-yl)-8-(trifluoromethyl)-3,4,10,10a,11,12,12a,13-octahydro-5,9-(azeno)cyclobuta[k]pyrazolo[4,3-b][1]oxa[4,6,10]triazacyclotridecine]	>10.09
